Test results as given in ChEMBL document CHEMBL5291721, “A preclinical secondary pharmacology resource illuminates target-adverse drug reaction associations of marketed drugs” (Nat Commun, 2023).

Key:
[1] = target: T1, Gastric inhibitory polypeptide receptor (Homo sapiens, UniProt P48546)
T1 sequence (P48546 whole entry): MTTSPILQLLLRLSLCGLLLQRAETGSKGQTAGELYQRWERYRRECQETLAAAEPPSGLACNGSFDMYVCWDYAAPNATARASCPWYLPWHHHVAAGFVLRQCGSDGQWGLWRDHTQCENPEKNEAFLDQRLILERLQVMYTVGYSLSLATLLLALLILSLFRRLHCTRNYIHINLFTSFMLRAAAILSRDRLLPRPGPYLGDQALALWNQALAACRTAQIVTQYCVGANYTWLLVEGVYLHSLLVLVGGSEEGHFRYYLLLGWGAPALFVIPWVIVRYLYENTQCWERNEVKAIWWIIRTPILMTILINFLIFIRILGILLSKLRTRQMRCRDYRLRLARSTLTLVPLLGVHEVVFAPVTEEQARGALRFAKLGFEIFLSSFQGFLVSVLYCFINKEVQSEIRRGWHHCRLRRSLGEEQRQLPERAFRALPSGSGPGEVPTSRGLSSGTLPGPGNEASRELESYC

[2] = target: Gamma-aminobutyric acid type B receptor subunit 1 (Homo sapiens, UniProt Q9UBS5)
D(4) dopamine receptor = target: T2, D(4) dopamine receptor (Homo sapiens, UniProt P21917)
T2 sequence (P21917 whole entry): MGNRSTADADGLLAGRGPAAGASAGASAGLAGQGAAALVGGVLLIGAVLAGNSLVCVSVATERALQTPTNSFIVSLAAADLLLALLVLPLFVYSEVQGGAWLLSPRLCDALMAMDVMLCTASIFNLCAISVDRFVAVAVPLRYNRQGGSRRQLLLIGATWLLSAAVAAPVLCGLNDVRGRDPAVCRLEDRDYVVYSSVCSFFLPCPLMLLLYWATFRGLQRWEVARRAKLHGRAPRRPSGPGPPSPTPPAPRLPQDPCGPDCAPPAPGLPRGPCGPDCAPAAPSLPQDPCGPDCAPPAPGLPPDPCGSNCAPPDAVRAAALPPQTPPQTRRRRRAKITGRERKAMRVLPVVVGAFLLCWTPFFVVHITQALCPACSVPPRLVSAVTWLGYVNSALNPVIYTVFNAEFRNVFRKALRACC

[3] = target: T3, Alpha-1A adrenergic receptor (Homo sapiens, UniProt P35348)
T3 sequence (P35348 whole entry): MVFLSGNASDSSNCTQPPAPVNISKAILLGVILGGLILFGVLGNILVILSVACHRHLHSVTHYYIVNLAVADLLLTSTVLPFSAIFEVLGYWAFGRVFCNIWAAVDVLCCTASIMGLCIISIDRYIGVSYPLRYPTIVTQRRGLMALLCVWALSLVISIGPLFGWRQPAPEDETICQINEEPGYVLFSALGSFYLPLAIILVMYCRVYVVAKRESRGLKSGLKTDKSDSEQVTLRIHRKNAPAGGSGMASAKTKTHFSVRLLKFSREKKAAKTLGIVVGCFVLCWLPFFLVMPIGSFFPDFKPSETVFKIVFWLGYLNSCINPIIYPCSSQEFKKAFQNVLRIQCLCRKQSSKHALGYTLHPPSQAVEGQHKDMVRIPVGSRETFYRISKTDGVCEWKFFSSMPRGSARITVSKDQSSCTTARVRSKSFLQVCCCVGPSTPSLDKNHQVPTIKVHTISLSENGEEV

[4] = target: T4, Endothelin receptor type B (Homo sapiens, UniProt P24530)
T4 sequence (P24530 whole entry): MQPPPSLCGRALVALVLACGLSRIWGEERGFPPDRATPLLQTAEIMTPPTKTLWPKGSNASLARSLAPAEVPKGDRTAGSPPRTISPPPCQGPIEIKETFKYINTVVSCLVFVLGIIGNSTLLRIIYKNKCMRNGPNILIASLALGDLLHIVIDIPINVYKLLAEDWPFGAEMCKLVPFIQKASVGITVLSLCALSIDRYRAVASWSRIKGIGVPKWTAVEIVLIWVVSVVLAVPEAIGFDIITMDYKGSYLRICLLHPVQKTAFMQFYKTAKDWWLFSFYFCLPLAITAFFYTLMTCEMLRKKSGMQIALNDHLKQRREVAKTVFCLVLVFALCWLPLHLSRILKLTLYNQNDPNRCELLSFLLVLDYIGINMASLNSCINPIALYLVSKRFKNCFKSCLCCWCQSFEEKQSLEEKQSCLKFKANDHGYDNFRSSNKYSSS

[5] = target: 5-hydroxytryptamine receptor 7 (Homo sapiens, UniProt P34969)
Glucagon receptor = Glucagon receptor (Homo sapiens, UniProt P47871)
Cannabinoid receptor 1 = Cannabinoid receptor 1 (Homo sapiens, UniProt P21554); format: functional
B1 bradykinin receptor = target: T5, B1 bradykinin receptor (Homo sapiens, UniProt P46663)
T5 sequence (P46663 whole entry): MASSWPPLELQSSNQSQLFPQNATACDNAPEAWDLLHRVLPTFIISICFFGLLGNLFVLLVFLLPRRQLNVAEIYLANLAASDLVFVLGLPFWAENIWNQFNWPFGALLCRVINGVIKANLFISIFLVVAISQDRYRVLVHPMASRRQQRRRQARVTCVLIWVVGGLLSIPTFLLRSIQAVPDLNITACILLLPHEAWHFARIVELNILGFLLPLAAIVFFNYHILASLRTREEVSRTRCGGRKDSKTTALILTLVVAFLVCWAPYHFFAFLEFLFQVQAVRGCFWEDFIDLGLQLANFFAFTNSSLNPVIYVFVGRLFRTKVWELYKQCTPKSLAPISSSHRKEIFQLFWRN

[6] = target: 5-hydroxytryptamine receptor 2B (Homo sapiens, UniProt P41595)
[7] = target: T6, Muscarinic acetylcholine receptor M2 (Homo sapiens, UniProt P08172)
T6 sequence (P08172 whole entry): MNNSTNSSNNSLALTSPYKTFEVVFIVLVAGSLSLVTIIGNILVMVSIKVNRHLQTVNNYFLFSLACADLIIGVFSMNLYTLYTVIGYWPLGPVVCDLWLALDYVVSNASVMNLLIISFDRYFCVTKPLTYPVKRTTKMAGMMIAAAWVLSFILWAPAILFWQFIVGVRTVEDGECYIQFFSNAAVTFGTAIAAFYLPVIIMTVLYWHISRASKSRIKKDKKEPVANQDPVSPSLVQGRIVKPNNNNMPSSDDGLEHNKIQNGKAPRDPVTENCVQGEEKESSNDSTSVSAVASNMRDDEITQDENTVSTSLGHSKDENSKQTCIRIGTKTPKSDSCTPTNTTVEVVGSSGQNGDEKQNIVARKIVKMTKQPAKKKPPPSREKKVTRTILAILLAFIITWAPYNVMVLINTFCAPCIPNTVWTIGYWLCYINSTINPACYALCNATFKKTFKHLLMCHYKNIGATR
Note: assay procedure not described here.

Sequence of Glucagon receptor (P47871 whole entry): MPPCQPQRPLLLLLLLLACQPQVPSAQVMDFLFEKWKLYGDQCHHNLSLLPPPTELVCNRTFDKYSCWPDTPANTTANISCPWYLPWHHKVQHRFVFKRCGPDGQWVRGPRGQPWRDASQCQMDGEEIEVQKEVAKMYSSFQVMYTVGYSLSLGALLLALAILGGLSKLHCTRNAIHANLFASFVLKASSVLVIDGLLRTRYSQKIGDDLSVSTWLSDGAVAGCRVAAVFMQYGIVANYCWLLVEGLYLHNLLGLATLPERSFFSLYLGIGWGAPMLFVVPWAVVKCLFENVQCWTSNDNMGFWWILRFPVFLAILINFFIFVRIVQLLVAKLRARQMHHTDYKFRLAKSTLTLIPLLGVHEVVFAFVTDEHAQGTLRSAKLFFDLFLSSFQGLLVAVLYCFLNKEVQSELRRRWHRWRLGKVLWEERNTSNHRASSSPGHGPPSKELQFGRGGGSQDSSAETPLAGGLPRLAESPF
Sequence of Gamma-aminobutyric acid type B receptor subunit 1 (Q9UBS5 whole entry): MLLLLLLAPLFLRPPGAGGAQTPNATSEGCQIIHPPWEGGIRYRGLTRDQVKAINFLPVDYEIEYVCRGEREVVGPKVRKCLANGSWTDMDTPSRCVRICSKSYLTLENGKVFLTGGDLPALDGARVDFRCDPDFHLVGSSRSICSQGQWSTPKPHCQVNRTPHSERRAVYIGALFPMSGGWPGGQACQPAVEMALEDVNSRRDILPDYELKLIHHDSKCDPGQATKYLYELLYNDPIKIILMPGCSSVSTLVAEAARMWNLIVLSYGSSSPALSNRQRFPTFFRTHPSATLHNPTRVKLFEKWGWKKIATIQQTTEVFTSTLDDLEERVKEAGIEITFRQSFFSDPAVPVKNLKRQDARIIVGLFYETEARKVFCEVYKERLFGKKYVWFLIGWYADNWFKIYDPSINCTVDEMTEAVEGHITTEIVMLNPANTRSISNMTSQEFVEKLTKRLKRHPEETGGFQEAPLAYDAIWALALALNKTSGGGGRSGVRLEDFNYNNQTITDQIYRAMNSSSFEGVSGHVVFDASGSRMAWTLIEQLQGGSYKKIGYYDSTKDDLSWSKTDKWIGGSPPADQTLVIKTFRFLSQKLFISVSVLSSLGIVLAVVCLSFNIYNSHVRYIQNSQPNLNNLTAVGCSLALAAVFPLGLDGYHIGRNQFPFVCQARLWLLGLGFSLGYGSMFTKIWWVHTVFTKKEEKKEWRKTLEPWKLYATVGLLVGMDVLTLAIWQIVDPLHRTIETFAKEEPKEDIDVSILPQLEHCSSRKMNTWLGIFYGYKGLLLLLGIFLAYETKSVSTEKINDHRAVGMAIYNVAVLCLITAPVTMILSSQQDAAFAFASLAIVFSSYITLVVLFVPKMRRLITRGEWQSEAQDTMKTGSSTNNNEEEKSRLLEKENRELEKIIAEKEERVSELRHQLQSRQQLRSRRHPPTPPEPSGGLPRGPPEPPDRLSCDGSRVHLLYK
Sequence of 5-hydroxytryptamine receptor 7 (P34969 whole entry): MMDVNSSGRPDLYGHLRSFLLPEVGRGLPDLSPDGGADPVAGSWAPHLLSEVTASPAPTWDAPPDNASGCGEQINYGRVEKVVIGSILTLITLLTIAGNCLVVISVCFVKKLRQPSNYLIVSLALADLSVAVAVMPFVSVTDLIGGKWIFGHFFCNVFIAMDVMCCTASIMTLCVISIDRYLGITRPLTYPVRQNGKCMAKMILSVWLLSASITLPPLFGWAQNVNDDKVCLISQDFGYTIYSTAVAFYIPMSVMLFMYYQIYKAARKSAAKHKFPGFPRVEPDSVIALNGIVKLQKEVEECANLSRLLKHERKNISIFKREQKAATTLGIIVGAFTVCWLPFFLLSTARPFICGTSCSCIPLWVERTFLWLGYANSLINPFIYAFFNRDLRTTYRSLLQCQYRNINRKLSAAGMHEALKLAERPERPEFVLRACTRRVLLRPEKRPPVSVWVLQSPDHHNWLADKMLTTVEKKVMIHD
Sequence of 5-hydroxytryptamine receptor 2B (P41595 whole entry): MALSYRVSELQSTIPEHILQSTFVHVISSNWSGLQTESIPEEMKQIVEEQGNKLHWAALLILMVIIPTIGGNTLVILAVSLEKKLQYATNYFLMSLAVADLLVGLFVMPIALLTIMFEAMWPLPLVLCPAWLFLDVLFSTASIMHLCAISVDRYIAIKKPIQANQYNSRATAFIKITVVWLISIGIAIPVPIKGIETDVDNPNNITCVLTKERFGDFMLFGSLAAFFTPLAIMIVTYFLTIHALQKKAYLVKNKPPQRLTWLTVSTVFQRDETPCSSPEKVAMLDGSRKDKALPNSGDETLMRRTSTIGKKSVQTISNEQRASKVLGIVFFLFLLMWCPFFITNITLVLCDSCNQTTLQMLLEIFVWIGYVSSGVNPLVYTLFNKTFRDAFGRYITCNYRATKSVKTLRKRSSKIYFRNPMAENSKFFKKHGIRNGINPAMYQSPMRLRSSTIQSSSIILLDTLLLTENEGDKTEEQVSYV
Sequence of Cannabinoid receptor 1 (P21554 whole entry): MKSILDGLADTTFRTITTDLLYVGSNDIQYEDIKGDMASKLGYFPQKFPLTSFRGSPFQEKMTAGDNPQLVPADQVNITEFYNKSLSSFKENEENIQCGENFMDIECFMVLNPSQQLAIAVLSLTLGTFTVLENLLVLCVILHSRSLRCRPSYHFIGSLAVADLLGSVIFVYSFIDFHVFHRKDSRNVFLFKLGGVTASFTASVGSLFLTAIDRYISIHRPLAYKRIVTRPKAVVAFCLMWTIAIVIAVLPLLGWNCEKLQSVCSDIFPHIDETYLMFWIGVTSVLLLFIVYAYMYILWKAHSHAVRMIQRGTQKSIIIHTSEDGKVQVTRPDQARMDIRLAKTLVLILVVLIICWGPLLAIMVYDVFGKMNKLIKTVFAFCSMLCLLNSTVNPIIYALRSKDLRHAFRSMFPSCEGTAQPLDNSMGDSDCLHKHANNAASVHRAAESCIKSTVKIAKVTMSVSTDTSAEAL

Compound | AC50 [1] | AC50 [2] | AC50 (D(4) dopamine receptor) | AC50 [3] | AC50 [4] | AC50 [5] | AC50 (Glucagon receptor) | AC50 (Cannabinoid receptor 1) | AC50 (B1 bradykinin receptor) | AC50 [6] | AC50 [7]
NCCCC(O)(P(=O)(O)O)P(=O)(O)O [ALENDRONIC ACID] | > 30 µM | > 10 µM | > 10 µM | > 10 µM | > 30 µM | > 10 µM | > 30 µM | > 10 µM | > 30 µM |  | 
CCCC(C)(COC(N)=O)COC(=O)NC(C)C (stereo not drawn) [CARISOPRODOL] | > 30 µM |  | > 10 µM | > 10 µM | > 30 µM |  | > 30 µM |  | > 30 µM | > 10 µM | > 10 µM
N[C@H](Cc1cc(I)c(Oc2cc(I)c(O)c(I)c2)c(I)c1)C(=O)O [DEXTROTHYROXINE] | > 30 µM |  |  |  | > 30 µM |  | > 30 µM |  | > 30 µM | > 10 µM | > 10 µM
CC(=O)OCC(CCn1cnc2cnc(N)nc21)COC(C)=O [FAMCICLOVIR] | > 30 µM |  | > 10 µM | > 10 µM | > 30 µM |  | > 30 µM |  | > 30 µM | > 10 µM | > 10 µM
O=C(O)c1ccccc1Nc1cccc(C(F)(F)F)c1 [FLUFENAMIC ACID] | > 30 µM |  |  |  | > 30 µM |  | > 30 µM |  | > 30 µM |  | 
COC1=C(OC)C(=O)C(CCCCCCCCCCO)=C(C)C1=O [IDEBENONE] | > 30 µM | > 10 µM | > 10 µM | > 10 µM | > 30 µM | > 10 µM | > 30 µM | > 10 µM | > 30 µM | 8.99 µM | > 10 µM
CC#CCn1c(N2CCC[C@@H](N)C2)nc2c1c(=O)n(Cc1nc(C)c3ccccc3n1)c(=O)n2C [LINAGLIPTIN] |  |  |  |  |  |  |  |  |  | > 10 µM | > 10 µM
O=C1CN=C(c2ccccc2)c2cc(Cl)ccc2N1 [NORDAZEPAM] | > 30 µM | > 10 µM | > 10 µM | > 10 µM | > 30 µM | > 10 µM | > 30 µM | 0.0006 µM | > 30 µM | > 10 µM | > 10 µM
CC(CCc1ccccc1)NC(C)C(O)c1ccc(O)cc1 (stereo not drawn) [NYLIDRIN] | > 30 µM | > 10 µM | > 10 µM |  | > 30 µM | > 10 µM | > 30 µM | > 10 µM | > 30 µM | 0.733 µM | > 10 µM
O=C1Nc2ccc(Cl)cc2C(c2ccccc2)=NC1O (stereo not drawn) [OXAZEPAM] | > 30 µM | > 10 µM | > 10 µM | > 10 µM | > 30 µM | > 10 µM | > 30 µM | > 10 µM | > 30 µM |  | > 10 µM
CC(C)CC(N(C)C)C1(c2ccc(Cl)cc2)CCC1 (stereo not drawn) [SIBUTRAMINE] | > 30 µM | > 10 µM | > 10 µM | > 10 µM | > 30 µM |  | > 30 µM |  | > 30 µM |  | > 10 µM
[H]/N=C(/N)N[C@H]1[C@H](O)[C@@H](O)[C@H](O[C@@H]2O[C@@H](C)[C@](O)(C=O)[C@H]2O[C@@H]2O[C@@H](CO)[C@H](O)[C@@H](O)[C@@H]2NC)[C@@H](N/C(N)=N\[H])[C@@H]1O [STREPTOMYCIN] | > 30 µM |  | > 10 µM | > 10 µM | > 30 µM | > 10 µM | > 30 µM | > 10 µM | > 30 µM | > 10 µM | 
N#C[C@@H]1CCCN1C(=O)CNC12CC3CC(CC(O)(C3)C1)C2 [VILDAGLIPTIN] |  | > 10 µM | > 10 µM | > 10 µM |  | > 10 µM |  | > 10 µM |  | > 10 µM | > 10 µM
